In patent US20260200974A1, “PEPTIDE FOR CARTILAGE REGENERATION, AND USES THEREOF” (CAREGEN CO., LTD., priority 2022, published 2026):
Where a SMILES comes first, the peptide text is derived from it. Where no end group is shown, it is not given here.

Legend:
[1] = tested on: human adipose-derived mesenchymal stem cells (AD-MSC); experiment: SRB staining, cell morphology changes; type: cell-based; details: peptide at different concentrations, FIG. 1, FIG. 2
Description: Additionally, for SRB staining, after suctioning the medium from the plate, 60 μL of 3.7% formalin was added to the 96-well plate to be stained and fixed for 1 minute. After suctioning 3.7% formalin, 70 μL of SRB staining solution (sulforhodamine B sodium salt (sigma, S9012): 0.2 g in 100 mL DDW) was added and stained. The plate was covered with aluminum foil, blocked from light, and incubated overnight at room temperature. After washing with 100 μL of 1% acetic acid using a multi-pipette, it was dried and observed under a microscope. Meanwhile, in this example, the positive control group (CM) used was one containing dexamethasone (100 nM), […], proline (40 μM), TGFβ1 (10 ng/ml), and 1×ITS.

[2] = tested on: human adipose-derived mesenchymal stem cells (AD-MSC); experiment: CCK-8 assay, cytotoxicity; type: cell-based; details: 7 days, peptide at different concentrations, FIG. 3, FIG. 4
Description: Specifically, AD-MSC cells were seeded in 96-well plates at a density of 1.5×10^3 cells/well and cultured in Dulbecco's Modified Eagle's Medium (DMEM) supplemented with 10% FBS for 24 hours. Then, the medium was replaced with DMEM medium supplemented with 5% FBS, and Peptide-1 or Peptide-2 was treated at different concentrations, respectively. Subsequently, the medium was replaced every 3 days and Peptide-1 or Peptide-2 was treated at different concentrations, respectively. To confirm CCK-8 activity, after 7 days, CCK-8 (Dojindo, CCK-8 kit) solution was added at 1/10 volume of the culture medium, and incubated for 2 hours. The culture medium was sampled and CCK-8 activity was confirmed at a wavelength of 450 nm using a microplate reader.

Row | Compound | change in cell morphology in SRB staining [1] | toxicity toward adipose-derived mesenchymal stem cells (CCK-8 activity) [2]
1 | CC(C)C[C@H](NC(=O)[C@@H](N)CCCNC(=N)N)C(=O)N[C@@H](CCCNC(=N)N)C(=O)N[C@@H](CO)C(=O)O [Peptide-2, RLRS] (H-RLRS-OH) | did not show any change in cell morphology | did not exhibit toxicity
2 | LYRYEEHHE [Peptide-1, LYRYEEHHE] | did not show any change in cell morphology | did not exhibit toxicity
